# Active and inactive are the calls of the source. Cut-off read from the data, not from the text of the source, for most assays here: actives have a measured EC50 and inactives only a lower limit.
# Legend:
# [1] = tested on: HT-1080; test: HT1080 cell viability loss – fluorescence readout (AID 620); type: functional, cell-based; conditions: Homo sapiens
# [2] = tested on: Vero; test: viability of Vero cells under compound – cytotoxicity control for flavivirus capping enzyme inhibitors (AID 588742); type: functional; conditions: Chlorocebus sabaeus
# [3] = tested on: Vero; test: mammalian cell viability reduction – secondary assay, cytotoxicity control for West Nile virus antiviral project, dose response (AID 1650); type: functional; conditions: Chlorocebus sabaeus
# [4] = viability loss of HPDE-C7K cells – cell-based, fluorescence, HTS, primary screen (AID 431); type: functional; conditions: Homo sapiens
# [5] = HPDE-C7 pancreatic duct cell viability loss – fluorescence, HTS (AID 430); type: functional, cell-based; conditions: Homo sapiens
# [6] = biological target: T1, Streptokinase A (Streptococcus pyogenes serotype M1, UniProt P10520); test: viability-normalized secreted streptokinase activity reduction – plasminogen activation absorbance, OD405, dose response (AID 1914); type: functional, Streptococcus pyogenes M1 GAS;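 note: secreted streptokinase activity via plasminogen activation per viability signal from cell pellet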
# T1 sequence (P10520 whole entry): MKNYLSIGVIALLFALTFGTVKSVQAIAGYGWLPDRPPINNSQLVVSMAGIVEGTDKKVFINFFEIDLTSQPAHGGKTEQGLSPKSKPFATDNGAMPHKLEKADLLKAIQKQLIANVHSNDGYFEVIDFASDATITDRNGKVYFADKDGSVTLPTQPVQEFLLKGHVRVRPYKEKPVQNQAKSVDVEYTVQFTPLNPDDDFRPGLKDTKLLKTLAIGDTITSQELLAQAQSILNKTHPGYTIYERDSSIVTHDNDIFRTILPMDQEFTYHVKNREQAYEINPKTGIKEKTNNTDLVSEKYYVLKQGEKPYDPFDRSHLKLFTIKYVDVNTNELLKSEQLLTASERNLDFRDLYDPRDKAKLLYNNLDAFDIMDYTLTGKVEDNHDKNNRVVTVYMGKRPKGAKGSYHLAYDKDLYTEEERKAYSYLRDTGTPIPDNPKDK
# [7] = loss of viability in HepG2 cells – cell-based, CellTiter-Glo, cherry-picked, cytotoxicity control for Shn3 inhibitor project, dose response (AID 624134); type: functional
# [8] = tested on: Streptococcus sp. 'group A'; test: Streptococcus pyogenes SK(-)GAS viability under kanamycin – luminescence, BacTiterGlo, confirmation, counter-screen for streptokinase expression inhibitor project, dose response (AID 1900); type: functional, organism-based
# [9] = tested on: CHO; test: CHO cell viability loss, potency – luminescence, cytotoxicity control for TLR9-MyD88 binding inhibitor project, dose response (AID 588339); type: functional, cell-based, hamster; conditions: Cricetulus griseus;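 note: CHO cells stably coexpressing TLR9 and MyD88 fusions from primary screen; compound exposure lasted 48 hours before viability readout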
# [10] = biological target: T2, Replicative DNA helicase DnaB (Mycobacterium tuberculosis, UniProt P9WMR3); test: DnaB intein splicing inhibitors, dose response, biochemical, cell-free fluorescence (AID 449749); type: functional
# T2 sequence (P9WMR3 whole entry): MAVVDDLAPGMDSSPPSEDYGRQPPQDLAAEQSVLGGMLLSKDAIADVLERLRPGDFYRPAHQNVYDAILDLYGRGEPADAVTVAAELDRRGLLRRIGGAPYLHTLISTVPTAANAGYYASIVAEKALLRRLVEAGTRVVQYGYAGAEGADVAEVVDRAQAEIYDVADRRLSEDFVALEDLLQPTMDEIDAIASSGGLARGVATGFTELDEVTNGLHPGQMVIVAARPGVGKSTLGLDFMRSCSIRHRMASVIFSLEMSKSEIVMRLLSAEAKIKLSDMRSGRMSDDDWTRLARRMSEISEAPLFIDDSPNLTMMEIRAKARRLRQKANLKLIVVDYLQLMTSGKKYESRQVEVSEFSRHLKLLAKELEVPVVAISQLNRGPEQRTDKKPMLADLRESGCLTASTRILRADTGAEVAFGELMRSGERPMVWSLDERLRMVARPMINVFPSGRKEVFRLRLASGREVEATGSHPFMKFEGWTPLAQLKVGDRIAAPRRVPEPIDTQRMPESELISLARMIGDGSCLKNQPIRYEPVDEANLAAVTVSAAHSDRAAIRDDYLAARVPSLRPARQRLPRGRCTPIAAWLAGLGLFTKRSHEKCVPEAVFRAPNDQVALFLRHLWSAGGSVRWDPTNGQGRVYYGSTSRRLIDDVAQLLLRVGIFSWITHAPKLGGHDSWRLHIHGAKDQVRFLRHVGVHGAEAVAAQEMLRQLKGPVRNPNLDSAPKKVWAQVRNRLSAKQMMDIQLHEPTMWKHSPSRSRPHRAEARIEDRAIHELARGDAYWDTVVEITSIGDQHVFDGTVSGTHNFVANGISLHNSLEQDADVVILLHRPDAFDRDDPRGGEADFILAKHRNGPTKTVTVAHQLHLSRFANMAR
# [11] = reduction of Shn3 3'UTR-driven luciferase in osteoblasts – cell-based, Clone20 osteoblasts, firefly luciferase, cherry-picked, dose response (AID 624132); type: functional;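 note: firefly luciferase luminescence from reporter carrying the Shn3 3'UTR in osteoblasts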
# [12] = non-specific 3'UTR reporter inhibition in Clone20-Shn3RL – cell-based, Renilla luciferase, cherry-picked, counter-screen for Shn3 inhibitor project, dose response (AID 624133); type: functional
# [13] = biological target: ATP-binding cassette sub-family B member 6 (Homo sapiens, UniProt Q9NP58); test: ABCB6 transporter inhibitors, porphyrin accumulation, dose response, flow cytometry, K562-ABCB6 cells, cherry pick 02 (AID 624487); type: functional; conditions: read-out: EC50_MICROM
# Sequence of ATP-binding cassette sub-family B member 6 (Q9NP58 whole entry): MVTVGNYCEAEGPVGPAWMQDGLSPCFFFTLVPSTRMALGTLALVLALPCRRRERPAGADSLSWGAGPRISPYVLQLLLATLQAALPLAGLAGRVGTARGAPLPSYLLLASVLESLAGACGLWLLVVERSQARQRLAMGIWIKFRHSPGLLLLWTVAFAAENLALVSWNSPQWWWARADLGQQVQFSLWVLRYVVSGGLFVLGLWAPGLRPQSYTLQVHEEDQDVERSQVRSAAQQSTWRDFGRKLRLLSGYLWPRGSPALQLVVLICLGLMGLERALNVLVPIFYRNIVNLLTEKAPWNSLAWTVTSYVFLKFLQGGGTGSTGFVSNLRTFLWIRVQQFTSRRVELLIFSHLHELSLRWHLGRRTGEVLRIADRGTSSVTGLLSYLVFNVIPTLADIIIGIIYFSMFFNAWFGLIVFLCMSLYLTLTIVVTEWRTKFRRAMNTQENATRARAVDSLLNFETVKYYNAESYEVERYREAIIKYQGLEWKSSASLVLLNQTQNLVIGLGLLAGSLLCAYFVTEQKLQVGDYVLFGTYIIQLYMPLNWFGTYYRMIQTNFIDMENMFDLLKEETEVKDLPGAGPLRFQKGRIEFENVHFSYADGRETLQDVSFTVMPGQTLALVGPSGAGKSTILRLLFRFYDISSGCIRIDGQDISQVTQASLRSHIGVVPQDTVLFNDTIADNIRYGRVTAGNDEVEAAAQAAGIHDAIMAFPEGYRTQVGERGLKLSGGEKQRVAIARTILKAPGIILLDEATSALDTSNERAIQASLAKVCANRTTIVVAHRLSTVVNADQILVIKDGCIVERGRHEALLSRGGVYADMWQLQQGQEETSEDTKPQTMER
# [14] = biological target: T3, Protein RecA (Mycobacterium tuberculosis, UniProt P9WHJ3); test: Fluorescence Cell-Free Homogeneous Dose Retest to Identify Inhibitors of RecA-Intein Splicing Activity. [Related pubchem assays (depositor defined):AID2097, AID2223, AID489010, AID492950]; type: functional
# T3 sequence (P9WHJ3 whole entry): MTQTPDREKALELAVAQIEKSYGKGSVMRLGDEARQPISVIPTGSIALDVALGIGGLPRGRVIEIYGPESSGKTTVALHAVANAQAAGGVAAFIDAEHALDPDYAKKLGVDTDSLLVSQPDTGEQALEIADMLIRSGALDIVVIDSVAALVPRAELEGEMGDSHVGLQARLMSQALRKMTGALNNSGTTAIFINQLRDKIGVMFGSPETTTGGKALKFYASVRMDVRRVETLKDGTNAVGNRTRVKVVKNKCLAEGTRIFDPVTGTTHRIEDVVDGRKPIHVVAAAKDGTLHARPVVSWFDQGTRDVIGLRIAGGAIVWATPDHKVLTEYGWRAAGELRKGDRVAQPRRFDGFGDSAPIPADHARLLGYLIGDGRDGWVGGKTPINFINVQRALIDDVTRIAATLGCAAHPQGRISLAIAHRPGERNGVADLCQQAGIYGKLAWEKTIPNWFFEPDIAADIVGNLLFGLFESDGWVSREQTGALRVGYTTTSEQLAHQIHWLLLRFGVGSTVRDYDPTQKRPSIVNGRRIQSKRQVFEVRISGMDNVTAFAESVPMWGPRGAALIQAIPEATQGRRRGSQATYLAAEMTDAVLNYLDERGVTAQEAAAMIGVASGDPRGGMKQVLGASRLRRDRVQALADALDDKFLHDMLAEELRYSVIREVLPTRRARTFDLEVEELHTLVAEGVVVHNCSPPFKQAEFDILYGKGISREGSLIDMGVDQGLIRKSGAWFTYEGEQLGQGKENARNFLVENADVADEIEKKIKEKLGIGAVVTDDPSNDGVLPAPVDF
# [15] = Luminescence Cell-Based Dose Retest to Confirm Inhibitors of Cancer Stem Cells. [Related pubchem assays (depositor defined):AID2717, AID2721]; type: functional; conditions: Homo sapiens
# [16] = tested on: Streptococcus; test: GAS UMAA2166 growth inhibition – luminescence, BacTiterGlo, counter-screen for streptokinase expression inhibitor project, dose response (AID 1915); type: functional, organism-based;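 note: potency for reduction of bacterial viability or growth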
# [17] = biological target: T4, Apoptotic protease-activating factor 1 (Homo sapiens, UniProt O14727); type: functional
# T4 sequence (O14727 whole entry): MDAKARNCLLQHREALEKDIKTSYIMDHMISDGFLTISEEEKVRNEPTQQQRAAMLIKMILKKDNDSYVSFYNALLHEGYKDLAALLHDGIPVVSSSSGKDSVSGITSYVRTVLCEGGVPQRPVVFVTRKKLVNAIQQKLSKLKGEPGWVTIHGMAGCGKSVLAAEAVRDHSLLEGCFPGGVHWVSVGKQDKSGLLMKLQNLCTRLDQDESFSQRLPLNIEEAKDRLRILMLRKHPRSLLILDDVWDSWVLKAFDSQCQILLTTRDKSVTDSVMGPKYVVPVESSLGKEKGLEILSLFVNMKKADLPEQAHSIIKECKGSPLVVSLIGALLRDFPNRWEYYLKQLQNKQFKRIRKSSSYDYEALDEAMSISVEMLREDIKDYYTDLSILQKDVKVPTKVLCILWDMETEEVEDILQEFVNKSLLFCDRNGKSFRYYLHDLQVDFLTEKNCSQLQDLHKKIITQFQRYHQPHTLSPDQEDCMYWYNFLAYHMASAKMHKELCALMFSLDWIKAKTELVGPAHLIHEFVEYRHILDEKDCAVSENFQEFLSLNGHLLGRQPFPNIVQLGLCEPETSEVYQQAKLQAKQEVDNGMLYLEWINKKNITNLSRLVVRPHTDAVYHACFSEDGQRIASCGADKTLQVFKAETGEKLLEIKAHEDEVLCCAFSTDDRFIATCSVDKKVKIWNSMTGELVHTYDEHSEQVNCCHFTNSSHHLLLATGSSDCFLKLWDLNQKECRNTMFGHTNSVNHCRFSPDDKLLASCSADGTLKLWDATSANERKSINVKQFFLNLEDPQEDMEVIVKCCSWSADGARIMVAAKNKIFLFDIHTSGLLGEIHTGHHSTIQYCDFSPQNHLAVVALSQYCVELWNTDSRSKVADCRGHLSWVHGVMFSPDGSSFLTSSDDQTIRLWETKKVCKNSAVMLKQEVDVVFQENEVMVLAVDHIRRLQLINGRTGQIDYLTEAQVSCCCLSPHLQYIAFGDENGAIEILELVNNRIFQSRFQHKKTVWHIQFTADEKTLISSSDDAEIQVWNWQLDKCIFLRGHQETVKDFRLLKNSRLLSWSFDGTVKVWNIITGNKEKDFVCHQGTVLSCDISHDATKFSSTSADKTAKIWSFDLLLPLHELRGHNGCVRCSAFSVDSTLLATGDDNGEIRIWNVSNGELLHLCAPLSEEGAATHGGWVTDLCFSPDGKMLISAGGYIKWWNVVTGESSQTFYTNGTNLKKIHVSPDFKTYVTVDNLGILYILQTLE
# [18] = A Cell Based Secondary Assay To Explore Cytotoxicity of Compounds that Sensitize Mycobacterium Tuberculosis to Beta-Lactam Antibiotics.; type: functional
# [19] = Luminescence Cell-Based Dose Confirmation HTS to Identify Inhibitors of Platelet Dense Granule Release. [Related pubchem assays: 1663 (Primary HTS), 1678 (Summary of Project)]; type: functional
# [20] = biological target: Luciferin 4-monooxygenase (Photinus pyralis, UniProt P08659); test: inhibition of purified Photinus pyralis luciferase – biochemical, luminescence, dose response (AID 1891)
# Sequence of Luciferin 4-monooxygenase (P08659 whole entry): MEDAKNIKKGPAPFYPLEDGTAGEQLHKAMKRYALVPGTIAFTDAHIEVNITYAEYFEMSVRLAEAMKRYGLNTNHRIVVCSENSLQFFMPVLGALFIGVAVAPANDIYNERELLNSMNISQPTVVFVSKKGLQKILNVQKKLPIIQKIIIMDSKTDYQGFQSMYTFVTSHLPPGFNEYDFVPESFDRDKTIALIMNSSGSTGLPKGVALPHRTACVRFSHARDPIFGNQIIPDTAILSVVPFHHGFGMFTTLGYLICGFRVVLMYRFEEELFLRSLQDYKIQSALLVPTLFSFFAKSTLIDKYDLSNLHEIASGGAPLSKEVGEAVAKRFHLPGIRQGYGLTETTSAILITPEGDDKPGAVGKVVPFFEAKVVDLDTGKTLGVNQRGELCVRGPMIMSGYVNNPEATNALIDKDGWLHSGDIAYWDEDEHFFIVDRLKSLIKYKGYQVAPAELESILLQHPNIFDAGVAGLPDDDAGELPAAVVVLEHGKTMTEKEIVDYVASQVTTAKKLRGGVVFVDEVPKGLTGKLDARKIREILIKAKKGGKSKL
# [21] = tested on: BJ; test: BJ-TERT-LT-ST fibroblast viability loss – cell-based, RAS-independent, luminescence, dose response (AID 1935); type: functional; conditions: Homo sapiens;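 note: BJ fibroblasts immortalized with TERT plus LT and ST oncogenes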
# [22] = tested on: BJ; test: growth inhibition of engineered Ras-driven BJ cells – cell-based, alamar blue fluorescence, cherrypicked samples, dose response (AID 2631); type: functional; conditions: Homo sapiens;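 note: confirmatory dose-response assay in RAS-dependent BJ fibroblasts engineered with TERT, LT and ST, with cytotoxicity read by fluorescence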
# [23] = tested on: BJ; test: BJ-TERT fibroblast viability loss – cell-based, RAS-independent, luminescence, dose response (AID 1933); type: functional; conditions: Homo sapiens
# [24] = DRD fibroblast viability loss – cell-based, non-viral oncogenic, luminescence, dose response (AID 1934); type: functional; conditions: Homo sapiens
# [25] = tested on: BJ; test: cells; type: functional, cell-based; conditions: Homo sapiens
# [26] = tested on: Vero; test: cells; type: functional; conditions: Chlorocebus sabaeus
# [27] = tested on: H4; test: Luminescence Cell-Based Dose Response HTS to Identify Activators of 5'UTR Stem-Loop Driven Prion Protein mRNA Translation in H4 Neuroglioblastoma Cells. [Related pubchem assays: 1829 (Project Summary), 1814 (Primary HTS)]; type: functional; conditions: Homo sapiens
# [28] = Luminescence Cell-Based Dose Confirmation HTS to Identify Activators of 5'UTR Stem-Loop Driven Alpha-Synuclein mRNA Translation in H4 Neuroglioblastoma Cells. [Related pubchem assays: 1829 (Project Summary), 1814 (Primary HTS)]; type: functional
# [29] = Luminescence Cell-Based Dose Response HTS to Identify Activators of Luciferase Translation or Activity in H4 […] Cells. [Related pubchem assays: 1829 (Project Summary), 1814 (Primary HTS)]; type: functional
structure (smiles),measurement,setting,value
O=C(NCc1cccs1)c1nc(O)c2nnn(Cc3ccccc3Cl)c2n1,EC50,[1],> 50 µM (not active)
same,CC50,[2],7 µM (active)
same,CC50,[3],14.6 µM (active)
same,EC50,[4],> 20 µM (not active)
same,EC50,[5],> 20 µM (not active)
Cc1ccc(NC(=O)c2nc(S(=O)(=O)Cc3ccccc3C)ncc2Cl)cc1C,EC50,[6],1.32 µM (active)
same,AC50,[7],30.8 µM (active)
same,EC50,[8],9.97 µM (active)
same,IC50,[9],5.02 µM (active)
same,AC50,[10],> 380 µM (inconclusive)
same,AC50,[11],0.486 µM (active)
same,AC50,[12],8.07 µM (active)
same,EC50,[13],20.5 µM (active)
same,EC50,[14],1.31 µM (active)
same,AC50,[15],2.01 µM (active)
same,EC50,[16],22.2 µM (inconclusive)
O=C1N/C(=C\c2ccc(O)cc2)C(=O)c2ccccc21,IC50,[17],3.21 µM (active)
same,CC50,[18],> 40 µM (active)
same,EC50,[19],1.15 µM (active)
same,EC50,[20],0.661 µM (active)
CN1CCN(C(=O)CCCN2C(=O)/C(=C/c3cccc(Br)c3)SC2=S)CC1,EC50,[21],> 150 µM (inconclusive)
same,EC50,[22],> 66.7 µM (inactive)
same,EC50,[23],1.93 µM (active)
same,EC50,[24],4.36 µM (active)
same,EC50,[25],> 150 µM (inconclusive)
same,CC50,[26],> 25 µM (active)
same,EC50,[27],> 120 µM (not active)
same,EC50,[28],13.9 µM (active)
same,EC50,[29],> 120 µM (not active)
